Values quoted from earlier work in US12291505B2, “Methods for the synthesis of deuterated dextromethorphan” (AVANIR PHARMACEUTICALS, INC., priority 2016, dated 2025).

Tests used:
[1] = co-administered with dextromethorphan
[2] = biological target: N-methyl-D-aspartate (NMDA) receptor; conditions: weak uncompetitive antagonist
sigma-1 = sigma-1 (Homo sapiens, UniProt Q99720); conditions: read-out: Ki, sigma-1; sigma-1 agonist
[3] = biological target: norepinephrine transporter (Homo sapiens, UniProt P23975); conditions: read-out: Ki, norepinephrine transporter affinity
Sequence of norepinephrine transporter (P23975 whole entry, species assumed): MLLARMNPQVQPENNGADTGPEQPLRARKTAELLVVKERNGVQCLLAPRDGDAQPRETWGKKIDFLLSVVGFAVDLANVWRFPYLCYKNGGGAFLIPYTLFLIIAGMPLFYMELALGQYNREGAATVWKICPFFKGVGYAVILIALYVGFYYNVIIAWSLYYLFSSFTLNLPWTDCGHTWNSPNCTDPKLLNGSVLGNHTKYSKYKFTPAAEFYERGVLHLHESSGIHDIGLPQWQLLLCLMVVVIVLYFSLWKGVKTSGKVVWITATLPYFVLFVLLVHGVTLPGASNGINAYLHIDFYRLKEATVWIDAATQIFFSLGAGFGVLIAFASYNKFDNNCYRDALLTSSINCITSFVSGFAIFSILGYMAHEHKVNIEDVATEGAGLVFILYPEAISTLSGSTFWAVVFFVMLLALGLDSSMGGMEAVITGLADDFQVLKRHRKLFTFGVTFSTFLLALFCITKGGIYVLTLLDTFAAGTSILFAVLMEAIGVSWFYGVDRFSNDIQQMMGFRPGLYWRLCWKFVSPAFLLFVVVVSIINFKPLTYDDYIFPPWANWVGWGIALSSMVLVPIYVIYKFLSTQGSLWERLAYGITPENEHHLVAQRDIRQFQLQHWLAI

uptake of norepinephrine = conditions: read-out: Ki, inhibition of uptake of norepinephrine

Sequence of sigma-1 (Q99720 whole entry): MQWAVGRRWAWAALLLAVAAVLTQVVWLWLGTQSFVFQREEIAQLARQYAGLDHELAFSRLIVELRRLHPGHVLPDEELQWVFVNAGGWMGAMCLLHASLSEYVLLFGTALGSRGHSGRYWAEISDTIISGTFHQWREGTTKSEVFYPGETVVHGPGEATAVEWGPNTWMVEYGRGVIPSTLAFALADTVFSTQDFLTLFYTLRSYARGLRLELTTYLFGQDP

For `C=C[C@H]1C[N@@]2CC[C@H]1C[C@@H]2[C@@H](O)c1ccnc2ccc(OC)cc12` [Quinidine], the “effect on dextromethorphan in the blood” value [1] is listed as “greatly increases the quantity of dextromethorphan circulating in the blood”.

In the case of `COc1ccc2c(c1)[C@]13CCCC[C@@H]1[C@H](C2)N(C)CC3` [DM, (+)-3-methoxy-17-methyl-(9α,13α,14α)-morphinan], the Ki [2] is listed as 1500 nM, the Ki (sigma-1) is listed as 200 nM and the Ki [3] is listed as 13000 nM. For the same molecule, the Ki (uptake of norepinephrine) was 240 nM.
